Results taken from patent US6518278B1, “Carcinostatic substance for compatible administration, process of administrating same and process of rapidly inspecting same” (Debio Pharm S.A., priority 1994, dated 2003).
Entries after “also recorded” stand apart in the source; their conditions may differ.

Experiments:
Type in all cases: cell-based
[1] = test system: human leutecyte strain cells (RPMI-8402); assay: Rapid inspection of carcinostatic substances by counting divided cells with DAPI; conditions: for number of the divided cells compared with the control (FIG. 15): 0.05 μg/ml VCR, 0.05 μg/ml VDS, 20 μg/ml MST-16, with 1 μg/ml DAPI; for division phases of the divided cells (microscope observation): ratio of the divided cells increased after the initiation of the cultivation, no anaphase or telophase cells observed
Experimental: After over a certain number of cancer cells are prepared by cultivation, a carcinostatic substance is added to the cancer cells. The number of the cells under the cell division at the respective measuring times is counted while continuing the cultivation. […] Accordingly, the effectiveness of the carcinostatic substance can be inspected by counting the number of the cells under the cell division among a certain number (for example, one thousand) of cells several times, comparing the said number with that of the former counting or the previous counting thereof and grasping the progress of the cell division by means of the increase or the decrease of the above comparison. If the DAPI is added with the carcinostatic substance during this procedure, the accurate counting of the number of the divided cells can be performed because the cells under the any phase of the cell division can be recognized. When the number of the divided cells decreases as a result of the comparison between the measurement values, it is judged that the multiplication of the cancer cells is depressed, or the function of the carcinostatic substance is performed. When, on the other hand, the number of the divided cells increases compared with the control, a certain function of the carcinostatic substance is judged to be performed. […] To the respective cultivation liquids were added, together with 1 μg/ml of the DAPI, (1) the control (no addition of the carcinostatic substance), (2) 5 μg/ml of CPT (camptotecin), (3) 10 μg/ml of CPT-11 ([…]), (4) 0.06 μg/ml of ADR (adriamycin), (5) 0.05 μg/ml of DNR (daunomycin), (6) 1 μ/ml of etoposide, (7) 20 μg/ml of MST-16 (sopsoxane), (8) 1 μg/ml of […]), (9) μg/ml of Act-D (actinomycin D), (10) 0.1 μg/ml of mitoxantrone. (11) 20 μg/ml of 5-FU, (12) 10 μg/ml of Ara-C (cytosinarabinoside) (13) 50 μg/ml of hydroxyurea, (14) 2 μg/ml of Aphidicolin, (15) 10 μg/ml of MTX (mesotroxate), (16) 0.05 μg/ml of VCR (vincristin), (17) 0.05 μg/ml of […]). (5) μg/ml of cisplatin, (18) 10 μg/ml of bleomycin, (20)10 μg/ml of MMC (mitomycin C) and (21) 5 μg/ml of cyclophospamide (endoxane). The samples were sampled from the respective cultivation liquids after one hour, […], 24 hours and then every 24 hour from the initiation of the cultivation. The samples were evaluated in accordance with the procedures of the preceding Examples. The results are shown in a graph of FIG. 15.

living cells = assay: Fluorescence dye bonded to living cells: does the cell stay alive
Excerpt: As the said fluorescence dye, the above DAPI can be employed. Although the DAPI itself is known, the use for the observation of the cell division while keeping the cells alive is unknown. The present inventors have investigated such fluorescence dye as Hoechst 33258, acridine orange and acridine yellow other than the DAPI.

[2] = test system: human leutecyte strain cell (RPMI-8402); assay: Extinction effect of compatible administration of l-OHP and a compatible agent on tumor cells (compatible efficiency OE); conditions: for Compatible Effects of l-OHP and Compatible Agent, Simultaneous Administration: both added day 1
Experimental: In the evaluation of the extinction effect of the tumor cells of the respective combinations, a pure extinction effect produced by the compatible administration of the compatible agent and the l-OHP is calculated by subtracting an extinction effect of a control (no carcinostatic substance is employed).
The compatibly administration effect is calculated by employing an Equation (1) described later. When the value (%) calculated by this Equation is between 85 and 115%, the compatible administration effect is evaluated to be an additive effect. When the value is below 85%, it is evaluated to be below the additive effect. When the value is over 115%, it is evaluated to be a synergistic effect, ±15% is a reliability limit or a measurement error.
A target tumor cell was a human leutecyte strain cell (RPMI-8402 of Gibuko K.K.). To these cells was added blood serum of a cow embryo (15%, Gibuko K.K.) to prepare a cell floating liquid of which the number of the cells was 10^6/ml in a cultivation bottle (tradename; Sumiron of Sumitomo Bakelite o., Ltd.) having a volume of 6 ml. A plenty of the cultivation bottles having the cell floating liquid therein were prepared, and the following experiments were conducted while selecting one kind of a compatible agent among cisplatin, 5-FU, irinotecane, adriamycin, etoposide, mitomycin, mitoxantrone, bleomycin, vincristin and vindecin. The time schedules of the controls (no addition of medicines, addition of only the l-OHP and addition of only a compatible agent, and specified in the below items (1) to (4)) and of the compatible administration of the compatible agent and the l-OHP are shown in FIG. 10.
(1) No medicine was added (control).
(2) Only the l-OHP was added at a second day.
(3) A large amount of compatible agents were added at a first day ([…] of the cisplatin, 10 μg/ml of the 5-FU, 0.05 μg/ml of the adriamycin and 1 μg/ml of the etoposide, and for the comparison purpose, 0.05 μg/ml of the vincristin and 0.06 μg/ml of the vindecin). The adding amount of the irinotecano was fixed to 10 μg/ml, and the addition amount of the l-OHP was 5 μg/ml.
(4) A small amount of compatible agents were added at a first day (0.5 μg/ml of the cisplatin, 5 μg/ml of the 5-FU, 0.01 μg/ml of the adriamycin and 0.5 μg/ml of the etoposide, and for the comparison purpose, 0.01 μg/ml of the vincristin and 0.01 μg/ml of the vindecin). The adding amount of the irinotecane was fixed to 10 μg/ml, and the addition amount of the l-OHP was 1 μg/ml.
(5) The l-OHP and a large amount (the same as that of the above item (3) and so forth in the following items) of the compatible agents were simultaneously added at a first day.
(6) The l-OHP and a small amount (the same as that of the above item (4) and so forth in the following items) of the compatible agents were simultaneously added at a first day.
(7) The l-OHP was added at a first day and a large amount of the compatible agents were added at a second day.
(8) The l-OHP was added at a first day and a small amount of the compatible agents were added at a second day.
(9) The l-OHP was added at a first day and a large amount of the compatible agents were added at a third day.
(10) The l-OHP was added at a first day and a small amount of the compatible agents were added at a third day.
(11) The l-OHP was added at a first day and a large amount of the compatible agents were added at a fourth day.
(12) The l-OHP was added at a first day and a small amount of the compatible agents were added at a fourth day.
(13) A large amount of the compatible agents were added at a first day and the l-OHP was added at a second day.
(14) A small amount of the compatible agents were added at a first day and the l-OHP was added at a second day.
(15) A large amount of the compatible agents were added at a first day and the l-OHP was added at a third day.
(16) A small amount of the compatible agents were added at a first day and the l-OHP was added at a third day.

[3] = larger dosage of compatible agent (μg/ml: cisplatin 1, 5-FU 10, irinotecane 10, adriamycin 0.05, vincristin 0.05, vindecin 0.05, etoposide 1, bleomycin 10, mitoxantrone 0.1, mitomycine 1), l-OHP 1 μg/ml (5 μg/ml with irinotecane) added day 1
[4] = larger dosage of compatible agent (μg/ml: cisplatin 1, 5-FU 10, irinotecane 10, adriamycin 0.05, vincristin 0.05, vindecin 0.05, etoposide 1, bleomycin 10, mitoxantrone 0.1, mitomycine 1), l-OHP 1 μg/ml (5 μg/ml with irinotecane)
[5] = larger dosage of compatible agent added day 1 (μg/ml: cisplatin 1, 5-FU 10, irinotecane 10, adriamycin 0.05, vincristin 0.05, vindecin 0.05, etoposide 1, bleomycin 10, mitoxantrone 0.1, mitomycine 1), l-OHP 1 μg/ml (5 μg/ml with irinotecane)
[6] = smaller dosage of compatible agent (μg/ml: cisplatin 0.5, 5-FU 5, irinotecane 10, adriamycin 0.01, vincristin 0.01, vindecin 0.01, etoposide 0.5, bleomycin 1, mitoxantrone 0.05, mitomycine 0.5), l-OHP 1 μg/ml added day 1
[7] = smaller dosage of compatible agent (μg/ml: cisplatin 0.5, 5-FU 5, irinotecane 10, adriamycin 0.01, vincristin 0.01, vindecin 0.01, etoposide 0.5, bleomycin 1, mitoxantrone 0.05, mitomycine 0.5), l-OHP 1 μg/ml
[8] = smaller dosage of compatible agent added day 1 (μg/ml: cisplatin 0.5, 5-FU 5, irinotecane 10, adriamycin 0.01, vincristin 0.01, vindecin 0.01, etoposide 0.5, bleomycin 1, mitoxantrone 0.05, mitomycine 0.5), l-OHP 1 μg/ml

SMILES | number of the divided cells compared with the control (FIG. 15) [1] | division phases of the divided cells (microscope observation) [1] | toxicity of fluorescence dye to the cell (living cells) | compatible administration effect with l-OHP, summary in words [2] | Compatible Effects of l-OHP and Compatible Agent, Time Lag Administration, Addition Administration of Compatible Agent day 2 [2, 3] | Compatible Effects of l-OHP and Compatible Agent, Time Lag Administration, Addition Administration of Compatible Agent day 3 [2, 3] | Compatible Effects of l-OHP and Compatible Agent, Time Lag Administration, Addition Administration of Compatible Agent day 4 [2, 3] | Compatible Effects of l-OHP and Compatible Agent, Simultaneous Administration [2, 4] | Compatible Effects of l-OHP and Compatible Agent, Time Lag Administration, Addition Administration of l-OHP day 2 [2, 5] | Compatible Effects of l-OHP and Compatible Agent, Time Lag Administration, Addition Administration of l-OHP day 3 [2, 5] | Compatible Effects of l-OHP and Compatible Agent, Time Lag Administration, Addition Administration of l-OHP day 4 [2, 5] | Compatible Effects of l-OHP and Compatible Agent, Time Lag Administration, Addition Administration of Compatible Agent day 2 [2, 6] | Compatible Effects of l-OHP and Compatible Agent, Time Lag Administration, Addition Administration of Compatible Agent day 3 [2, 6] | Compatible Effects of l-OHP and Compatible Agent, Time Lag Administration, Addition Administration of Compatible Agent day 4 [2, 6] | Compatible Effects of l-OHP and Compatible Agent, Simultaneous Administration [2, 7] | Compatible Effects of l-OHP and Compatible Agent, Time Lag Administration, Addition Administration of l-OHP day 2 [2, 8] | Compatible Effects of l-OHP and Compatible Agent, Time Lag Administration, Addition Administration of l-OHP day 3 [2, 8] | Compatible Effects of l-OHP and Compatible Agent, Time Lag Administration, Addition Administration of l-OHP day 4 [2, 8]
CC(C)COC(=O)OCN1C(=O)CN(CCN2CC(=O)N(COC(=O)OCC(C)C)C(=O)C2)CC1=O [MST-16, sopsoxane] | increase of the number of the divided cells was momentarily observed | the division prophase and the division metaphase |  |  |  |  |  |  |  |  |  |  |  |  |  |  |  | 
CN(C)c1ccc2cc3ccc(N(C)C)cc3nc2c1 [acridine orange] |  |  | toxicity is too strong to keep the cell alive |  |  |  |  |  |  |  |  |  |  |  |  |  |  | 
CC[C@]1(O)C[C@@H]2CN(CCc3c([nH]c4ccccc34)[C@@](C(=O)OC)(c3cc4c(cc3OC)N(C)[C@H]3[C@@](O)(C(N)=O)[C@H](O)[C@]5(CC)C=CCN6CC[C@]43[C@@H]65)C2)C1 [vindecin] | remarkable increases of the numbers of the divided cells | the division prophase and the division metaphase |  | the additive effect at best; also recorded: no synergistic effects can be obtained in all the 14 combinations and the additive effects can be obtained in only three combinations | Δ (Δ: Below Additive Effect) | Δ (Δ: Below Additive Effect) | Δ (Δ: Below Additive Effect) | ◯ (◯: Additive Effect) | ◯ (◯: Additive Effect) | Δ (Δ: Below Additive Effect) | Δ (Δ: Below Additive Effect) | Δ (Δ: Below Additive Effect) | Δ (Δ: Below Additive Effect) | ◯ (◯: Additive Effect) | Δ (Δ: Below Additive Effect) | Δ (Δ: Below Additive Effect) | Δ (Δ: Below Additive Effect) | Δ (Δ: Below Additive Effect)
CC[C@]1(O)C[C@H]2CN(CCc3c([nH]c4ccccc34)[C@@](C(=O)OC)(c3cc4c(cc3OC)N(C=O)[C@H]3[C@@](O)(C(=O)OC)[C@H](OC(C)=O)[C@]5(CC)C=CCN6CC[C@]43[C@@H]65)C2)C1 [vincristin] | remarkable increases of the numbers of the divided cells | the division prophase and the division metaphase |  | the additive effect at best; also recorded: no synergistic effects can be obtained in all the combinations and the additive effects can be obtained in most combinations | Δ (Δ: Below Additive Effect) | Δ (Δ: Below Additive Effect) | ◯ (◯: Additive Effect) | Δ (Δ: Below Additive Effect) | ◯ (◯: Additive Effect) | Δ (Δ: Below Additive Effect) | ◯ (◯: Additive Effect) | ◯ (◯: Additive Effect) | Δ (Δ: Below Additive Effect) | ◯ (◯: Additive Effect) | Δ (Δ: Below Additive Effect) | ◯ (◯: Additive Effect) | ◯ (◯: Additive Effect) | ◯ (◯: Additive Effect)
